Patent US20250296961A1, “ANTIMICROBIAL PEPTIDES FOR REMINERALIZATION OF TEETH AND PREVENTION OF DENTAL CARIES” (The University of Hong Kong, priority 2021, published 2025)

Assays:
[1] = Adsorption capacity assay: peptides with HA particles (Micro BCA); format: binding
Procedure: The adsorption of P-113, P-113-DPS, P-113-DA, and P-113-SK to HA particles (Sigma Chemical Co., St Louis, USA) was measured using the Micro BCA method with Sp-H5 as the control group. Solutions of P-113, P-113-DPS, P-113-DA, P-113-SK and Sp-H5 in 10 mM HEPES buffer (pH 7) were diluted to 10 nmol/mL concentrations, and 200 μL was placed into each tube (P-113, N=10; P-113-DPS, N=10; P-113-DA, N=10; P-113-SK, N=10; and Sp-H5, N=10). Peptide solutions were mixed with (n=5) or without (n=5) HA particles (20 mg/tube) in each group. Tubes were placed onto a rotator overnight at 37° C. for complete reaction. Tubes containing the peptide solution and HA were centrifuged (13000 rpm, 1 min) and the supernatant collected. Bovine serum albumin (BSA) standard solutions (working range=5-250 μg/mL) and working reagent were prepared using the Pierce BCA Protein Assay Kit (Rockford, IL, USA). Working reagents (100 μL/well) were added to a 96-well plate, followed by standard and peptide solutions (100 μL/well). The Plate was incubated in the dark for 30 min and the absorbance (562 nm) measured using a plate reader. The concentration (C) of the BSA standard solution was linear with the absorbance (A) at 562 nm. The function of C=a*A+b was determined (a and b as constants). The final concentration (the peptide solution mixed with HA) and the initial concentration (the peptide solution without HA) were computed using the function and the generated absorbance data of the peptide solution mixed with and without HA.

[2] = Adsorption time assay on tooth enamel (Micro BCA); format: binding, human; settings: 10 nmol/mL peptide, 37° C.
Procedure: (§1) 3×3×1.5 mm^3 (number: 197) tooth slices were prepared using a water-cooled diamond saw (IsoMet low-speed saw, Buehler, Lake Bluff, IL, USA). One working surface of complete enamel tissue from each tooth slice was generated using the MicroCT Skyscan 1172 (Bruker MicroCT, Kontich, Belgium). The enamel working side of the tooth slice was polished and other sides marked with acid-proof nail polish. All tooth slices were cleaned and stored in deionized water at 4° C.
Adsorption Time Assay The adsorption time of peptides to the tooth enamel was also tested using the Micro BCA method. Solutions of P-113, P-113-DPS, P-113-DA, and P-113-SK in 10 mM HEPES buffer (pH 7) were diluted to 10 nmol/mL. Enamel working surfaces of tooth slices (N=20) were exposed to P-113 solution (n=5), P-113-DPS solution (n=5), P-113-DA solution (n=5), and P-113-SK solution (n=5), respectively. The remaining extraneous surfaces were covered with wax. Tubes were placed into a rotator at 37° C. […] After a 30-min incubation, absorbance was measured. A function of C=a*A+b was determined (a and b are constants). The concentrations of the peptide solution at different time points (C0, C1, C2, C3, C4, and C5 at 0, 5, 20, 40, 60, and 120 min, respectively) were computed based on absorbances […].

[3] = Demineralization assay of peptide-coated enamel (Example 1); design: species or system human; settings: demineralization solution 7 days
Procedure: as §1
Tooth slices (N=30) were immersed in 8 μmol/mL P-113, P-113-DPS, P-113-DA, P-113-SK, Sp-H5 (n=5 for each) solutions (in 10 mM HEPES) or HEPES (control) overnight. Tooth slices were incubated in 2 mL demineralization solution (2.2 mM CaCl2), 2.2 mM NaH2PO4, 0.05 M acetic acid, pH 4.5) for 7 days at 37° C. Lesions depths were analyzed by MicroCT Skyscan 1172. Mineral calcium (Ca) or phosphorus (P) concentrations before and after immersion were measured using Inductively Coupled Plasma Optical Emission Spectrometer (ICP-OES; Spectro Arcos, Kleve, Germany). Ca/P loss was expressed as mM/cm^2. The mean values of Ca/P loss were analyzed for each group using ANOVA at the 1% c significance level.

[4] = Remineralization assay of peptide-coated enamel (Example 1); design: species or system human; settings: 8 μmol/mL coating, remineralization solution 24 h, FE-SEM
Procedure: as §1
The enamel working surface of tooth slices (N=30) was acid-etched in 37% phosphoric acid for 1 min and rinsed with deionized water for 1 min. The slices were immersed in 8 μmol/mL P-113, P-113-DPS, P-113-DA, P-113-SK, Sp-H5 (n=5 for each) solutions (in 10 mM HEPES) or HEPES (control) overnight. All tooth slices were incubated in 7 mL remineralization solution (2.58 mM CaCl2)·2H2O, 1.55 mM KH2PO4, 10 mg/L NaF, 180 mM NaCl, 50 mM Tris-HCl, pH 7.6) for 24 h. The enamel surface and cross-section morphology were analyzed by FE-SEM (Hitachi, S4800). Ca/P concentrations in the solutions before and after immersion were calculated by ICP-OES. The mean values for Ca/P gain were analyzed using ANOVA at the 1‰ significance level.

S. mutans = assay: Anti-planktonic bacterial ability, MBC (Example 2); format: cell-based, S. mutans (ATCC 35668)
Procedure: (§2) S. mutans (ATCC 35668, ATCC, Manassas, USA), S. gordonii (ATCC 35105, ATCC, Manassas, USA), and S. sanguinis (ATCC 10556, ATCC, Manassas, USA) strains were cultured in brain-heart infusion broth (BHI, Difco Laboratories, Detroit, USA) at 37° C. under anaerobic conditions (85% N2, 10% H2, and 5% CO2). Bacteria were harvested by centrifugation (5000 rpm, 10 min), washed once with sodium phosphate-buffered saline (PBS, 10 mM, pH=7.2), and resuspended in BHI at a concentration of 1×10^6 CFU mL^−1.
(§3) Each well was seeded with 10 μL S. mutans suspension, S. gordonii suspension, and S. sanguinis suspension, respectively. […] The bacterial growth was assessed by measuring the absorbance at 595 nm using a microplate reader after a 24-hour incubation. Subsequently, 10 μL of bacterial suspension from each well were plated on horse blood agar plates and incubated at 37° C. for 48 h. The antibacterial activities of AMPs were evaluated.

S. sanguinis = assay: Anti-planktonic bacterial ability, MBC (Example 2); format: cell-based, S. sanguinis (ATCC 10556)
Procedure: as §2, §3

With “AKRHHGYKRKFH [Peptide P-113, non-specific AMP, portion of human histatin 5]” the “Concentration change (95% CI)” value ([1]; initial vs final concentration with HA particles) was 0.29 (−0.01-0.61), the “Final concentration (Mean ± SD)” value ([1]; peptide solution mixed with HA particles (20 mg/tube), overnight 37° C.) was 9.86 ± 0.23 nM mL^−1 and the “Adsorption time on enamel (majority of adsorption / significant decrease in concentration)” value [2] was 60 min. The Maximum lesion depth ([3]; 8 μmol/mL coating, MicroCT) was 115 μm, the “Ca losses vs control group” value [3] was “Significant differences were not detected” and the “Thickness of the regenerated crystal layer on the enamel surface” value [4] was 6 μm. For the same sequence, the “MBC, S. mutans” value (S. mutans) was over 128 μM mL^−1 and the “MBC, S. sanguinis” value (S. sanguinis) was over 128 μM mL^−1.
